Measured values from patent US11931347B2, “Method of screening for agents for differentiating stem cells” (MINERVA BIOTECHNOLOGIES CORPORATION, priority 2015, dated 2024).

What was measured:
[1] = system: T47D breast cancer cells; experiment: cancer cell proliferation assay (Calcein live cell stain); assay type: cell-based, human; conditions: live cell Calcein stain, 96 hours (FIG. 113)
[2] = system: SK-OV-3 MUC1* positive ovarian cancer cells; experiment: cancer cell proliferation assay (Calcein); assay type: cell-based; conditions: 96 hours (FIG. 112)
Description: Small molecule inhibition of cancer cell proliferation studies were also performed on several cancer sub-types. […] The small molecules of the invention had the most robust effect on T47D breast cancer cells, which are highly positive for MUC1* growth factor receptor, and its activating ligands NME7AB and NME7-X1. […] For the cancer cell proliferation experiment cancer cells were plated at constant densities (6000 cells/well) into a 96-well White-walled/Clear-bottom Tissue Culture Treated plate (Corning Incorporated, Big Flats, N.Y.). Small molecule analogs are added at T=24 hours in media with 2% FBS. […] […] Calcein fluorescence (final concentration 0.5 uM) is used to assess cell viability. Cancer cell fluorescence is measured in a TECAN SAFIRE^2 spectrophotometer plate reader. The plate is then imaged using an Olympus IX71 fluorescence imaging microscope and montage of the resulting images are assembled using ImageJ.

[3] = system: OV-90 MUC1* negative ovarian cancer cells; experiment: cancer cell proliferation assay (Calcein); assay type: cell-based; conditions: 96 hours (FIG. 114)
Description: Small molecule inhibition of cancer cell proliferation studies were also performed on several cancer sub-types. […] The small molecules of the invention had the most robust effect on T47D breast cancer cells, which are highly positive for MUC1* growth factor receptor, and its activating ligands NME7AB and NME7-X1. […] For the cancer cell proliferation experiment cancer cells were plated at constant densities (6000 cells/well) into a 96-well White-walled/Clear-bottom Tissue Culture Treated plate (Corning Incorporated, Big Flats, N.Y.). Small molecule analogs are added at T=24 hours in media with 2% FBS. Following the addition of the small molecules, the cells remain untouched for 120 hours with visual confirmations/inspections at 24, 48, 72 and 96 hours post plating. At the 120 hour mark a calcein fluorescence assay (Thermo Fisher Scientific, Waltham, Mass.) is performed on the plate. Calcein fluorescence (final concentration 0.5 uM) is used to assess cell viability. Cancer cell fluorescence is measured in a TECAN SAFIRE^2 spectrophotometer plate reader. The plate is then imaged using an Olympus IX71 fluorescence imaging microscope and montage of the resulting images are assembled using ImageJ.

Question: Which “inhibition of growth of T47D cells” value [1] does the source give for `Cc1sc2c(c1C)C(c1ccc(Cl)cc1)=N[C@@H](CC(=O)OC(C)(C)C)c1nnc(C)n1-2` [JQ1+, JQ1] here?
Answer: The value was “inhibited growth”.

Question: What about the “effect on growth of SK-OV-3 cells” value [2] of the same compound?
Answer: The value was “slight effect”.

Question: What about the “effect on growth of OV-90 cells” value [3] of the same compound?
Answer: Its value is “neither the compounds of the invention nor JQ1 or SU11274 had any apparent effect”.
